# Where two headings read alike, the source gives them in different places.
# What was measured:
# PC-3MLN4 cells = experiment: Normalized mitotic index (histone H3 phospho-Serine-28), PC-3MLN4; format: cell-based; settings: Homo sapiens, at 1 μM; normalized against vehicle-treated cells; read-out: Normalized mitotic index PC-3MLN4
# Source text: (§1) The mitotic index for each agent was normalized against those obtained from vehicle-treated cells, and compared with the activity of paclitaxel, a known inducer of mitotic arrest.
# PC-3M cells = experiment: Normalized mitotic index (histone H3 phospho-Serine-28), PC-3M; format: cell-based; settings: Homo sapiens, at 1 μM, normalized against vehicle-treated cells, read-out: Normalized mitotic index PC-3M
# Source text: as §1
# AT6.1 cells = experiment: Normalized mitotic index (histone H3 phospho-Serine-28), AT6.1; format: cell-based; settings: Rattus norvegicus, at 1 μM; normalized against vehicle-treated cells; read-out: Normalized mitotic index AT6.1
# Source text: as §1
# [1] = test system: AT6.1 Dunning rat prostate carcinoma; experiment: Survival in intravenous AT6.1 Dunning rat prostate carcinoma lung metastasis model; format: in vivo, nu/nu mice; settings: for percent increase in life span (ILS %): 100 mg/kg i.p. three times a week, over vehicle-treated mice; for average survival time: FIG. 5 (carrier only 20.4 days)
# Description: Many anti-tumor drugs are tested only for their ability to prevent primary tumor growth or to prevent the dissemination of metastatic cells. To accomplish this, the drug is usually administered shortly after the primary tumor is established. […] The benzimidazoles described herein were evaluated in an experimental metastases model in the lungs of nude mice following tail-vein injection of Dunning rat AT6.1 prostate carcinoma. […] In order to achieve greater bioavailability, we first solubilized benzimidazoles in DNTC formulation and then diluted with saline prior to injection.
# Inbred male nu/nu mice age 6-8 weeks were obtained from Massachusetts General Hospital (Boston, Mass.). The mice were virus antibody free, age and weight matched for experimental use and fed with a balanced rodent diet ad libitum. AT6.1 Dunning rat prostate cells were maintained as described above. 1×10^4 log-phase cells were injected via tail vein in 0.1 mL Hanks solution. Vehicle or drug treatment was started on day 5 post inoculation and given three times a week (Monday, Wednesday and Friday) via intraperitoneal injection in 0.5 mL volume. Benzimidazole drugs were prepared in the combination carrier [DMSO (12.5%), NMP (37.5%), TWEEN®-80 (25%) and CrEL (25%)] and diluted in saline. Vehicle control was prepared by diluting the combination carrier with saline.
# During the course of treatment, the mice were monitored for toxicity by measuring body weight. […] Animals were euthanized with CO2 and tissues were collected for further analysis. The animals and experiments used in these studies were approved by the institutional animal care committee according to Children's Hospital Boston ARCH guidelines.
# To distinguish differences in survival between these groups, the percent increase in life span (ILS %), defined as the percent increase in the mean time to death of drug-treated animals over the corresponding time to death for vehicle-treated mice, was calculated.
# tubulin = experiment: In vitro tubulin polymerization assay; format: biochemical
# Source text: Using an in vitro tubulin polymerization assay, it was confirmed that benzimidazoles disrupt microtubule polymerization.
# [2] = test system: PC3M human prostate cancer cells; experiment: Cyquant cell viability assay, PC3M; format: cell-based; settings: Homo sapiens, PC-3M
# Description: (§2) PC3M and PC3MLN4 cells were treated with vehicle, fenbendazole in DMSO, and fenbendazole in DMSO/NMP/TWEEN®-80/CrEL in varying doses for 72 hours. Cell viability assays using Cyquant reagent (Invitrogen, C7026) were performed as described in the literature. […] cells were seeded in 96 well plates overnight, before treated with either vehicle or benzimidazole solubilized in DMSO alone or in DMSO (12.5%)/NMP ([…])/TWEEN®-80 (25%)/Cr-EL (25%) for 72 hours. Cells were harvested by removing the media, washing once with phosphate buffered saline (PBS) and freezing at −80° C. for overnight. After thawing to room temperature, Cyquant reagent were prepared and added to the wells and the fluorescence intensity were measured with a spectrometer at 485 nm. Percent control was calculated by dividing the reading from drug-treated cells with the reading from vehicle-treated cells.
# (§3) ED50 values were calculated from dose-effect analysis performed with Compusyn using data from the Cyquant cell viability assays.
# (§4) ED50 values were calculated from dose-effect analysis performed with Compusyn using data from the Cyquant cell viability assays. All benzimidazoles drugs were solubilized in the combination carrier.
# [3] = test system: PC3MLN4 human prostate cancer cells; experiment: Cyquant cell viability assay, PC3MLN4
# Description: as §2, §3, §4
# PC3MLN4 cells = experiment: Annexin V/7-AAD apoptosis by flow cytometry, PC3MLN4
# Description: (§5) Annexin V/7-amino-actinomycin D labeling was done according to the manufacturer's instructions (BD Pharmingen, 559763) and samples were analyzed by flow cytometry. Briefly, the cells were treated for 72 hours with either vehicle or 1 μM benzimidazole drugs, solubilized in the combination carrier. Cells were trypsinized and washed with PBS before resuspending in assay binding buffer. Annexin V and 7-amino-actinomycin labeling was performed at room temperature for 15 minutes before analysis by flow cytometry (BD FACScan). Cells positively stained for annexin V in the lower right quadrant and upper right quadrant indicate early and late apoptosis, respectively.
# All benzimidazole drugs were solubilized in the combination carrier. After 72 hours, the cells were analyzed by annexin V/7-AAD staining. Cells positively stained for annexin V in the lower right quadrant and upper right quadrant indicate early and late apoptosis, respectively.
# PC3M cells = experiment: Annexin V/7-AAD apoptosis by flow cytometry, PC3M; format: cell-based, human; settings: 1 μM, 72 hours, combination carrier
# Description: All benzimidazole drugs were solubilized in the combination carrier. After 72 hours, the cells were analyzed by annexin V/7-AAD staining.
# as §5
# [4] = test system: AT6.1 Dunning rat prostate carcinoma; experiment: Tumor burden by blood Gaussia luciferase assay in AT6.1 model; format: in vivo, nu/nu mice; settings: 100 mg/kg
# Source text: Similar to the survival model, treatment was not begun until day 5 when micrometastases were confirmed growing in the lung. For this approach, the AT6.1 cells were engineered to express secreted Gaussia luciferase enzyme. Using measurement of luciferase activity from the peripheral blood as an indicator of overall tumor burden, a significant reduction of tumor burden in the lungs of benzimidazole-treated animals when compared to vehicle-treated mice was observed. After 22 days, the mice were sacrificed and the lungs examined for viable tumor colonies.
# Blood Gaussia luciferase assay was performed as described in the literature. Briefly, 10-20 μL peripheral blood was collected from the animals once a week via the retro-orbital vein. Secreted GAR luciferase activity was measured using a luminometer by adding 100 μL of 100 μM coelentrazine (Prolume, Nanolight, #303) to 5 μL blood and 2 μL of 20 mM EDTA. Relative luciferase reading from the blood collected represents the tumor burden in each animal. The reading was performed with blood collected at day 19 post inoculation when all mice were still alive.
# [5] = Combination with paclitaxel, Cyquant cell growth inhibition, CompuSyn median-dose effect analysis; format: cell-based; settings: Fa 0.50; alone or in combination; read-out: Dose MBZ
# Description: Cell growth inhibition assays were performed using Cyquant reagent as described above. Drug interactions were quantitated by median-dose effect analysis and combination index values as well as dose reduction index were derived using CompuSyn software (ComboSyn, Inc.), as described previously in the literature. CI values of <1, =1, and >1 indicate synergism, additivity and antagonism between the drugs, respectively.
# All benzimidazole drugs were prepared using the combination carrier and diluted with culture medium prior to treatment.
# [6] = test system: PC3 human prostate cancer cells; experiment: Cyquant cell viability assay, PC3; format: cell-based; settings: 72 hours, read-out: ED50 PC3
# Description: (§6) The cytotoxic effects of paclitaxel, fenbendazole, and albendazole were compared in paclitaxel-resistant PC3-TR and DU145-TR prostate cancer cells with their paclitaxel-sensitive counterparts, PC3 and DU145 cells. Cells were treated for 72 hours with vehicle, paclitaxel, fenbendazole or albendazole in various doses. Cell viability was measured using Cyquant assay, and percent control was calculated by dividing the fluorescent reading from drug-treated cells with those from vehicle-treated cells, indicating percentage of cell survival.
# [7] = test system: paclitaxel-resistant PC3-TR prostate cancer cells; experiment: Cyquant cell viability assay, PC3-TR; format: cell-based, human; settings: Homo sapiens; 72 hours; paclitaxel-resistant; read-out: ED50 PC3-TR
# Description: as §6
# [8] = test system: DU145 human prostate cancer cells; experiment: Cyquant cell viability assay, DU145; format: cell-based; settings: DU-145, 72 hours, read-out: ED50 DU145
# Description: as §6
# [9] = test system: paclitaxel-resistant DU145-TR prostate cancer cells; experiment: Cyquant cell viability assay, DU145-TR; format: cell-based, human; settings: Homo sapiens; 72 hours; paclitaxel-resistant; read-out: ED50 DU145-TR
# Description: as §6
# [10] = test system: MES-SA human uterine sarcoma cells; experiment: Cell viability, MES-SA; format: cell-based; settings: read-out: ED50 MES-SA
# Source text: (§7) Benzimidazoles retain their anti-tumor activity in these paclitaxel-resistant cells, with higher potency when compared to the parental cells (see Table 4). Cells resistant to microtubule-stabilizing drugs such as the taxanes are more susceptible to microtubule-disrupting agents. To confirm this, human uterine sarcoma MES-SA/Dx5 cells, which are cross-resistant to various chemotherapeutic agents, including the microtubule-disrupting agents vincristine and colchicine, were used.
# [11] = test system: multidrug resistant MES-SA/Dx5 human uterine sarcoma cells; experiment: Cell viability, MES-SA/Dx5; format: cell-based; settings: read-out: ED50 MES-SA/Dx5
# Source text: as §7
# PC3 cells = experiment: % apoptotic cells, PC3; format: cell-based, human; settings: 1 μM
# PC3-TR cells = experiment: % apoptotic cells, PC3-TR; format: cell-based, human; settings: 1 μM
# DU145 cells = experiment: % apoptotic cells, DU145; format: cell-based, human; settings: 1 μM
# DU145-TR cells = experiment: % apoptotic cells, DU145-TR; format: cell-based, human; settings: 1 μM
# [12] = combination carrier, Table 2, read-out: ED50 PC3M
# [13] = 50 mg/kg i.p. three times a week from day 5
compound,measurement,setting,value
"CCCCNC(=O)n1c(NC(=O)OC)nc2ccccc21 [Benomyl, benomyl]",fold induction at 1 µM,PC-3MLN4 cells,0.99
same,fold induction at 1 µM,PC-3M cells,0.91
same,fold induction at 1 µM,AT6.1 cells,1.08
same,percent increase in life span (ILS %),[1],7.5%
same,tubulin disrupting effect,tubulin,strongest tubulin disrupting effect
"COC(=O)Nc1nc2ccccc2[nH]1 [Carbendazim, carbendazim]",fold induction at 1 µM,PC-3MLN4 cells,1
same,fold induction at 1 µM,PC-3M cells,0.91
same,fold induction at 1 µM,AT6.1 cells,1.08
"COC(=O)Nc1nc2cc(C(=O)c3ccc(F)cc3)ccc2[nH]1 [Flubendazole, flubendazole]",EC50,[2]; [12],1.43 µM
same,cytotoxicity in highly metastatic cells relative to PC-3M,[3],greater cytotoxicity
same,fold induction at 1 µM,PC-3M cells,> 1
same,fold induction at 1 µM,AT6.1 cells,> 1
same,cytotoxic activity via apoptosis in highly metastatic prostate cancer cells,PC3MLN4 cells,induction of apoptosis
"COC(=O)Nc1nc2ccc(C(=O)c3ccccc3)cc2[nH]1 [Mebendazole, mebendazole]",EC50,[2]; [12],1.21 µM
same,apoptotic cells in PC3MLN4,"PC3MLN4 cells; 1 μM, 72 hours, combination carrier",17.6%
same,apoptotic cells in PC3M,PC3M cells,16.8%
same,average survival time,[1]; [13],29 days
same,average survival time,[1]; 100 mg/kg i.p. three times a week from day 5,34.6 days
same,percent increase in life span (ILS %),[1],48.9%
same,survival,"[1]; 100 mg/kg, FIG. 6 (control 24.25 days)",36.13 days
same,reduction in tumor burden,"[4]; blood collected at day 19, FIG. 8",most pronounced
same,tumor burden compared to the control,"[4]; until day 22, FIG. 9",significant reduction in tumor burden
same,EC50,[5],17.5 µM
same,EC50,[6],2.85 µM
same,EC50,[7],0.75 µM
same,EC50,[8],5.9 µM
same,EC50,[9],2.97 µM
same,EC50,[10],1.27 µM
same,EC50,[11],0.79 µM
same,% Apoptotic cells (72 hours) PC3,PC3 cells,11.9%
same,% Apoptotic cells (72 hours) PC3-TR,PC3-TR cells,21.5%
same,% Apoptotic cells (72 hours) DU145,DU145 cells,16.4%
same,% Apoptotic cells (72 hours) DU145-TR,DU145-TR cells,36.7%
"CCCOc1ccc2nc(NC(=O)OC)[nH]c2c1 [Oxibendazole, oxibendazole]",EC50,"[2]; solubilized in DMSO alone, 72 hours, read-out: ED50 PC3M DMSO",8.82 µM
same,cytotoxicity in highly metastatic cells relative to PC-3M,[3],greater cytotoxicity
same,EC50,"[3]; Homo sapiens, 72 h, read-out: ED50 PC3MLN4 DMSO",4.12 µM
same,fold induction at 1 µM,PC-3MLN4 cells,1.8 to 2
same,fold induction at 1 µM,PC-3M cells,> 1
same,fold induction at 1 µM,AT6.1 cells,> 1
same,cytotoxic activity via apoptosis in highly metastatic prostate cancer cells,PC3MLN4 cells,induction of apoptosis
same,average survival time,[1]; [13],27.4 days
"c1ccc2[nH]c(-c3cscn3)nc2c1 [Thiabendazole, thiabendazole]",fold induction at 1 µM,PC-3MLN4 cells,0.99
same,fold induction at 1 µM,PC-3M cells,0.98
same,fold induction at 1 µM,AT6.1 cells,0.96
"COC(=O)NC(=S)Nc1ccccc1NC(=S)NC(=O)OC [Thiophanate methyl, thiophanate-methyl]",fold induction at 1 µM,PC-3MLN4 cells,0.95
same,fold induction at 1 µM,PC-3M cells,0.95
same,fold induction at 1 µM,AT6.1 cells,0.96

# — US20120064008A1, “COMPOSITIONS FOR THE TREATMENT OF METASTATIC CANCER AND METHODS OF USE THEREOF” (priority 2009, published 2012)
